According to patent US20210228734A1, “CONJUGATES COMPRISING A TEMPERATURE-RESPONSIVE POLYMER AND A LIGAND CAPABLE OF BINDING ERGOSTEROL” (L V PRASAD EYE INSTITUTE, priority 2018, published 2021):

What was measured:
[1] = test system: Fusarium keratoplasticum ATCC36031; assay: Minimal inhibitory concentration (MIC), F. keratoplasticum ATCC36031; type: cell-based; conditions: F. keratoplasticum ATCC 36031
Procedure: (§1) C. albicans cells, laboratory strain SC5314 or ATCC90028, were cultured on solid BHI (Oxoid) medium at 37° C. for 24 hours and stored at 4° C. for up to one month. Prior to experiments, a colony of C. albicans was sub-cultured into liquid BHI medium overnight at 37° C. Overnight cultures of C. albicans were adjusted to an optical density at 600 nm of 0.1 and incubated with Amphotericin polymers, which were serially diluted 1:2 from 2500-2.44 μg/ml, for 16 hours in a 96 well plate. The concentration of polymer at which there was no visible growth was determined to be the MIC. C. albicans (Robin) ATCC200955, C. tropicalis ATCC200956, A. flavus ATCC16883 and F. keratoplasticum ATCC36031 were similarly cultured on solid Sabrauds (Oxoid) medium at 37° C. for 24 hours and stored at 4° C. for up to one month. Prior to experiments, colonies were sub-cultured into liquid Sabrauds medium overnight at 37° C. All liquid cultures were static apart from A. flavus which was incubated shaking at 100 rpm.

[2] = test system: C. albicans (Robin) ATCC200955; assay: Minimal inhibitory concentration (MIC), C. albicans ATCC200955; type: cell-based; conditions: C. albicans ATCC200955 (Amp-B non-sensitive); Table 3b
Procedure: as §1

[3] = physiological pH; stated as well known; cited from earlier work
C. tropicalis ATCC200956 = assay: Minimal inhibitory concentration (MIC), C. tropicalis ATCC200956; type: cell-based; conditions: C. tropicalis ATCC200956 (Amp-B non-sensitive); Table 3b
Procedure: as §1, with “Overnight cultures of C. albicans were adjusted to an optical density at 600 nm of 0.1 and incubated with Amphotericin polymers, which were serially diluted 1:2 from 2500-2.44 μg/ml, for 16 hours in a 96 well plate.” left out

C. albicans SC5314 = assay: Minimal inhibitory concentration (MIC), C. albicans SC5314; type: cell-based
Procedure: (§2) C. albicans cells, laboratory strain SC5314 or ATCC90028, were cultured on solid BHI (Oxoid) medium at 37° C. for 24 hours and stored at 4° C. for up to one month. Prior to experiments, a colony of C. albicans was sub-cultured into liquid BHI medium overnight at 37° C.
as §1

[4] = test system: rabbit limbal epithelial cells; assay: Rabbit limbal epithelial cell viability (Alamar Blue); conditions: p<0.01
Procedure: Tissue was immersed in 2.5 mg ml^−1 (w/v) dispase II solution in DMEM for 1 hour at 37° C. The limbal rims were subsequently scraped gently using forceps to remove the epithelial cells. The dispase-cell suspension was centrifuged at 200 g for 5 minutes and re-suspended in culture medium containing DMEM: Ham's F12 (1:1) supplemented with 10% foetal calf serum, 100 U ml^−1 penicillin and 100 U ml^−1 streptomycin, 2.5 μg ml^−1 Amp−B, 5 μg ml^−1 insulin and 10 ng ml^−1 epidermal growth factor. Cells were cultured with irradiated 3T3-mouse fibroblasts at a cell density of 2.4×10^4 cells cm^−2 in culture medium. Cells were not used beyond passage 3. For experiments, cells were seeded into 24 well-plates at 5×10^4 cells per well and cultured for 24 hours.
Prior to determining the viability of rabbit limbal epithelial cells, cells were washed 3× with phosphate-buffered saline (PBS, 0.01M, pH 7.4) to remove residual antimicrobials. […] Epithelial cell/cornea viability was determined using Alamar Blue reagent (5 μg ml^−1) dissolved in PBS. Cells/corneas were incubated with Alamar Blue for 30 minutes and the fluorescence of the solution determined at 570 nm excitation and 585 nm emission (Infinite 200, Tecan). Data for each polymer is presented as percentage viability relative to an untreated control. […]

[5] = test system: Aspergillus flavus ATCC16883; assay: Minimal inhibitory concentration (MIC), A. flavus ATCC16883; type: cell-based; conditions: A. flavus ATCC 16883
Procedure: as §1

C. albicans ATCC90028 = assay: Minimal inhibitory concentration (MIC), C. albicans ATCC90028; type: cell-based
Procedure: as §2, §1

[6] = literature range; cited from earlier work
human donor corneas = conditions: 2.5 ma ml^−1, Alamar Blue, p<0.01
Procedure: Epithelial cell/cornea viability was determined using Alamar Blue reagent (5 μg ml^−1) dissolved in PBS. Cells/corneas were incubated with Alamar Blue for 30 minutes and the fluorescence of the solution determined at 570 nm excitation and 585 nm emission (Infinite 200, Tecan). Data for each polymer is presented as percentage viability relative to an untreated control. Each assay was performed in triplicate and data represents the mean±SD from three independent experiments.
The examination of the cytotoxicity was further examined on ex vivo human corneas.

[7] = from weight based MIC and molar density

## C[C@@H]1[C@H](O)[C@@H](C)/C=C/C=C/C=C/C=C/C=C/C=C/C=C/[C@H](O[C@@H]2O[C@H](C)[C@@H](O)[C@H](N)[C@@H]2O)C[C@@H]2O[C@](O)(C[C@@H](O)C[C@@H](O)[C@H](O)CC[C@@H](O)C[C@@H](O)CC(=O)O[C@H]1C)C[C@H](O)[C@H]2C(=O)O [Amp-B, amphotericin B]
[1]; Table 3b
  Weight based MIC: 0.2 µg·mL
[1]; [7]
  Molar MIC: 250 µM
[2]
  Weight based MIC: >2500 µg·mL
[3]
  Solubility in water and saline solution: insoluble
C. tropicalis ATCC200956
  Weight based MIC: >2500 µg·mL
C. albicans SC5314; Table 3b
  Weight based MIC: 0.4 µg·mL
C. albicans SC5314; from weight based MIC and molar density of Amp-B groups
  Molar MIC: 500 µM
[4]; 100 μg ml^−1, 24 hours
  Metabolic activity of cells compared with the cell only control: 42.8±13.9%
[4]; 1 mg ml^−1, 24 hours
  Decrease in epithelial cell viability relative to a cell only control: approximately 91.7%
[5]; Table 3b
  Weight based MIC: 1.5 µg·mL
[5]; [7]
  Molar MIC: 1800 µM
C. albicans ATCC90028; Table 3b
  Weight based MIC: 0.5 µg·mL
C. albicans ATCC90028; [7]
  Molar MIC: 4800 µM
[6]
  MIC for Amp-B: 0.625 to 4 µg/mL
Human donor corneas
  Loss of corneal viability: approximately 95%
